Reference: patent US20070117770A1, “Human ribosomal DNA (rDNA) and ribosomal RNA (rRNA) nucleic acids and uses thereof” (Cylene Pharmaceuticals, Inc., priority 2005, published 2007)

Key:
Assay in all cases: Protein kinase inhibition assay
c-RAF(h) = format: biochemical, human; conditions: 2.5 μM
Protocol: (§1) Certain compounds were tested for activity in protein kinase inhibition assays. All substrates were dissolved and diluted to working stocks in de-ionized water, apart from histone H1 (10× working stock in 20 mM MOPS pH 7.0), PDKtide (10× working stock in 50 mM Tris pH 7.0) ATF2 (which is typically stored at a 20× working stock in 50 mM Tris pH 7.5, 150 mM NaCl, 0.1 mM EGTA, 0.03% Brij-35, 50% glycerol, 1 mM benzamidine, 0.2 mM PMSF and 0.1% R-mercaptoethanol), KKLNRTLSFAEPG (SEQ ID NO:203) and RRRLSFAEPG (SEQ ID NO:204) (50 mM HEPES pH 7.4) and GGEEEEYFELVKKKK (SEQ ID NO:205) (20 mM MOPS pH 7.0). All kinases were pre-diluted to a 10× working concentration prior to addition into the assay. The composition of the dilution buffer for each kinase is detailed below.
(§2) In a final reaction volume of 25 μl, c-RAF (h) (5-10 mU) is incubated with 25 mM Tris pH 7.5, 0.02 mM EGTA, 0.66 mg/ml myelin basic protein, 10 mM MgAcetate and [gamma-33P-ATP] (specific activity approx. 500 cpm/pmol, concentration as required). The reaction is initiated by the addition of the MgATP mix. After incubation for 40 minutes at room temperature, the reaction is stopped by the addition of 5 μl of a 3% phosphoric acid solution. 10 μl of the reaction is then spotted onto a P30 filtermat and washed three times for 5 minutes in 75 mM phosphoric acid and once in methanol prior to drying and scintillation counting.

MEK1(h) = MEK1(h) (Homo sapiens, UniProt Q02750); format: biochemical; conditions: read-out: percent residual activity of MEK1(h)
Protocol: as §1
The reaction is initiated by the addition of the MgATP. After incubation for 40 minutes at room temperature, 5 μl of this incubation mix is used to initiate a MAPK2 (m) assay, which is described on page 12 of this book.

PAR-1Bα(h) = PAR-1Bα(h) (Homo sapiens, UniProt Q7KZI7); format: biochemical; conditions: read-out: percent residual activity of PAR-1Bα(h)
Protocol: as §1
as §2, with “μl, PAR-1Bα” for “μl, c-RAF”, “with 8” for “with 25”, “mM MOPS” for “mM Tris”, “pH 7.0, 0.2” for “pH 7.5, 0.02”, “mM EDTA, 100 μM […] (SEQ ID NO:213),” for “mM EGTA, 0.66 mg/ml myelin basic protein,”, “10 pi” for “10 μl”

PDGFRα(h) = PDGFRα(h) (Homo sapiens, UniProt P16234); format: biochemical; conditions: read-out: percent residual activity of PDGFRα(h)
Protocol: as §1
(§3) In a final reaction volume of 25 μl, PDGFRα (h) (5-10 mU) is incubated with 8 mM MOPS pH 7.0, 0.2 mM EDTA, 0.1 mg/ml poly(Glu, Tyr) 4:1, 10 mM MnCl2, 10 mM MgAcetate and [gamma-33P-ATP] (specific activity approx. 500 cpm/pmol, concentration as required). The reaction is initiated by the addition of the MgATP mix. After incubation for 40 minutes at room temperature, the reaction is stopped by the addition of 5 μl of a 3% phosphoric acid solution. 10 μl of the reaction is then spotted onto a Filtermat A and washed three times for 5 minutes in 75 mM phosphoric acid and once in methanol prior to drying and scintillation counting.

PKCγ(h) = PKCγ(h) (Homo sapiens, UniProt P05129); format: biochemical; conditions: read-out: percent residual activity of PKCγ(h)
Protocol: as §1
(§4) In a final reaction volume of 25 μl, PKCγ (h) (5-10 mU) is incubated with 20 mM HEPES pH 7.4, 0.03% Triton X-100, 0.1 mM, 0.1 mg/ml phosphatidylserine, 10 μg/ml diacylglycerol, 0.1 mg/ml histone H1, 10 mM MgAcetate and [gamma-33P-ATP] (specific activity approx. 500 cpm/pmol, concentration as required). The reaction is initiated by the addition of the MgATP mix. After incubation for 40 minutes at room temperature, the reaction is stopped by the addition of 5 μl of a 3% phosphoric acid solution. […]

Rse(h) = Rse(h) (Homo sapiens, UniProt Q06418); format: biochemical; conditions: read-out: percent residual activity of Rse(h)
Protocol: as §1
as §4, with “Rse” for “PKCγ”, “8” for “20”, “MOPS” for “HEPES”, “7.0, 0.2 mM EDTA, 250 μM KVEKIGEGTYGVVYK (SEQ ID NO:211), 1 mM MnCl2,” for “7.4, 0.03% Triton X-100, 0.1 mM, 0.1 mg/ml phosphatidylserine, 10 μg/ml diacylglycerol, 0.1 mg/ml histone H1,”

Rsk2(h) = Rsk2(h) (Homo sapiens, UniProt P51812); format: biochemical; conditions: read-out: percent residual activity of Rsk2(h)
Protocol: as §1
as §3, with “Rsk2” for “PDGFRα”, “30 μM KKKNRTLSVA (SEQ ID NO:212),” for “0.1 mg/ml poly(Glu, Tyr) 4:1, 10 mM MnCl2,”, “P30 filtermat” for “Filtermat A”

Chain of MEK1(h) (Q02750 whole entry): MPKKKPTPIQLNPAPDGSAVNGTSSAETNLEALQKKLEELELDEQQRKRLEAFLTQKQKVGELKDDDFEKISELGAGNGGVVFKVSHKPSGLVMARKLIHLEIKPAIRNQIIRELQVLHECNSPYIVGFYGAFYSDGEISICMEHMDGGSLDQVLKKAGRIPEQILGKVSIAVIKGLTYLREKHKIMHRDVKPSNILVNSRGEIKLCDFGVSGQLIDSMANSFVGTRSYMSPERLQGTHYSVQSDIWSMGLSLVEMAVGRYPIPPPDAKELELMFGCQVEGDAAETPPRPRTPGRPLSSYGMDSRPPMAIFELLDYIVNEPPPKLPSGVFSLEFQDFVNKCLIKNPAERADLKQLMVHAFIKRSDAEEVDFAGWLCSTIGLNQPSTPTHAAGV
Chain of PAR-1Bα(h) (Q7KZI7 1-725 isoform Q7KZI7-4): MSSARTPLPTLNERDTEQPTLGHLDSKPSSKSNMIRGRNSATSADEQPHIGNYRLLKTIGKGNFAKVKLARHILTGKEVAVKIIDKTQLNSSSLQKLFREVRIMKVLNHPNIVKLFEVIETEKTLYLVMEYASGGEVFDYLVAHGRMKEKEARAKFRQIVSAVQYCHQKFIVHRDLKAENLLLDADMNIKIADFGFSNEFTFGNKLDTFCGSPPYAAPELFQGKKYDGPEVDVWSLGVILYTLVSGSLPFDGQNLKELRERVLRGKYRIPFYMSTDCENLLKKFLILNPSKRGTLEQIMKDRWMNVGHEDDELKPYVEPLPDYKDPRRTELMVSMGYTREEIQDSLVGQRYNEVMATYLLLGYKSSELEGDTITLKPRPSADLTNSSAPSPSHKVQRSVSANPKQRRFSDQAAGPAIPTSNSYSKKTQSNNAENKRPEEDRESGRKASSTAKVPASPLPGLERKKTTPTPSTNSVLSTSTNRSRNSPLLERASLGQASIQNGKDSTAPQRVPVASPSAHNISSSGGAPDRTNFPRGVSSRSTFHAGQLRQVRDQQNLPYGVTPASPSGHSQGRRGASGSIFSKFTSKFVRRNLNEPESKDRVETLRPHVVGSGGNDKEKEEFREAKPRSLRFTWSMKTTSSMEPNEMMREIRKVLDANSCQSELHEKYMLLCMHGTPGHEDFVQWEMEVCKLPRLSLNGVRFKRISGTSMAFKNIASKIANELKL
Chain of PDGFRα(h) (P16234 24-1089): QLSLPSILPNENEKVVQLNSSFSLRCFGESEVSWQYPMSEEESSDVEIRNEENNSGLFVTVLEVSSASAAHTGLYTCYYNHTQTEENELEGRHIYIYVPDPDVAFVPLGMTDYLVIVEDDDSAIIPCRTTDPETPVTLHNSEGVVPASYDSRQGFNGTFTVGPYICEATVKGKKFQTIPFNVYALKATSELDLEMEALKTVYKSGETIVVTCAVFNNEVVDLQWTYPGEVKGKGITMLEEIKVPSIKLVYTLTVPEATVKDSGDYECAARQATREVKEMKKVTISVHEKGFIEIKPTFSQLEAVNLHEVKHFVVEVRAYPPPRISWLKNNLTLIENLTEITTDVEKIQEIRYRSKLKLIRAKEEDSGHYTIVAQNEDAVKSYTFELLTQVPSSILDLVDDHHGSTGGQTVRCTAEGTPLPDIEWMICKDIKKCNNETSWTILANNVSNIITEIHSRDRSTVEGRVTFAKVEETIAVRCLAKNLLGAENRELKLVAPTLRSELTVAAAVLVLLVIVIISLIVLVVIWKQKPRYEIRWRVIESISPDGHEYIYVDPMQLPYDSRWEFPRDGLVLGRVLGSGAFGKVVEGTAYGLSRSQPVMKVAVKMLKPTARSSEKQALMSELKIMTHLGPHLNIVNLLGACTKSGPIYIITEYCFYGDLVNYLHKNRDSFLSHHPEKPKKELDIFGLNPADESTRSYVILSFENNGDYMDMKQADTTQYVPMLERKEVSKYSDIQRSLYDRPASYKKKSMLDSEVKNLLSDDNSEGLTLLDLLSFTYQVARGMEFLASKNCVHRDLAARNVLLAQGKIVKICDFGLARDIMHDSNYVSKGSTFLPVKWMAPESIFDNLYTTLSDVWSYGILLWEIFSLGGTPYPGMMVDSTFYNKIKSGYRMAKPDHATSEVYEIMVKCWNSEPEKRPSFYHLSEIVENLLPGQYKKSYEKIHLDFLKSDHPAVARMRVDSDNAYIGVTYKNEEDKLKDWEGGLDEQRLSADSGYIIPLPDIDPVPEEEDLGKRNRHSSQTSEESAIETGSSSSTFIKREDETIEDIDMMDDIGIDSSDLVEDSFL
Chain of Rse(h) (Q06418 41-890): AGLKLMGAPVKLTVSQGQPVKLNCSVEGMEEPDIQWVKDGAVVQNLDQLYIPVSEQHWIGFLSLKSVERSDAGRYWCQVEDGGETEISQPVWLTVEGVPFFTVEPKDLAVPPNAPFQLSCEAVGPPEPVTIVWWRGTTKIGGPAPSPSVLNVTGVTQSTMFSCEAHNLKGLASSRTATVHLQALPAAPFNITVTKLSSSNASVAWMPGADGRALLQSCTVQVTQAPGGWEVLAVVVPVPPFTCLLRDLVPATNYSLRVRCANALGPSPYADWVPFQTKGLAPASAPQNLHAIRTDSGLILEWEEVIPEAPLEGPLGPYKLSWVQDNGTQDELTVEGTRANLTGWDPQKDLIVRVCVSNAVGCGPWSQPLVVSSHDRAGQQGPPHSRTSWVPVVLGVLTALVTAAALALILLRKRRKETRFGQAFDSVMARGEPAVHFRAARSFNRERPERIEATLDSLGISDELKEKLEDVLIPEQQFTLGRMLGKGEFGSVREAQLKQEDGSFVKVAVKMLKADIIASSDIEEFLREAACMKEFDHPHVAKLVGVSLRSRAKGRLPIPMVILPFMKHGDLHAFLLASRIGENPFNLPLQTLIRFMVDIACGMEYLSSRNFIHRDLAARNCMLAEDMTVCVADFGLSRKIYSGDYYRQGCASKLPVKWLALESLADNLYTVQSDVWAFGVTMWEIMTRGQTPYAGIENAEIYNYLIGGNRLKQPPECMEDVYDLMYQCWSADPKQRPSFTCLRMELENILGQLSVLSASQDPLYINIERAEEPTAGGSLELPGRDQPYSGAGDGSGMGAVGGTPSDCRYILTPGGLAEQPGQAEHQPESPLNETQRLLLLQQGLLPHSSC
Chain of Rsk2(h) (P51812 whole entry): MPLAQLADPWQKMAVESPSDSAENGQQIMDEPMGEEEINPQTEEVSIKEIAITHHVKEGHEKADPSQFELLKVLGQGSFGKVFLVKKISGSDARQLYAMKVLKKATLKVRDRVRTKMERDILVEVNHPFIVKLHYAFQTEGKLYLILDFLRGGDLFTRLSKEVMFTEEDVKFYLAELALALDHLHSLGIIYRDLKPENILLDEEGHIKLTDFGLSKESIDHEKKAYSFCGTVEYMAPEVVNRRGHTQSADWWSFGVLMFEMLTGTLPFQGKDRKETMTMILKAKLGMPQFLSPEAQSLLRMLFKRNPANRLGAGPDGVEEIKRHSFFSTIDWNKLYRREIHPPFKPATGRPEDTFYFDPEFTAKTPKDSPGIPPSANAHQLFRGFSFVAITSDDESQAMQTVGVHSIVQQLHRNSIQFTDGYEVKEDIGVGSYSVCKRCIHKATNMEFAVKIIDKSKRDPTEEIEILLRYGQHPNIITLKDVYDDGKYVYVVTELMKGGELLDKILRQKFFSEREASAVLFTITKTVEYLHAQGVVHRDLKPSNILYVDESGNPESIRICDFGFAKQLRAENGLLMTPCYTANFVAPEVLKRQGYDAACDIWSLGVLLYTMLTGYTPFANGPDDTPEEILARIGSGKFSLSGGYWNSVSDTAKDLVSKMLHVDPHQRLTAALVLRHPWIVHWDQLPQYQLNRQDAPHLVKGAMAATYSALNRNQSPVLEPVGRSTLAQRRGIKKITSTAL

percent residual activity of c-RAF(h) (c-RAF(h))	remaining activity at 2.5 µM (MEK1(h))	remaining activity at 2.5 µM (PAR-1Bα(h))	remaining activity at 2.5 µM (PDGFRα(h))	remaining activity at 2.5 µM (PKCγ(h))	remaining activity at 2.5 µM (Rse(h))	remaining activity at 2.5 µM (Rsk2(h))	Compound
100%	87%	88%	108%	110%	92%	60%	CN1CCCC1CCNC(=O)c1cn2c3c(c(N4CCC(c5cnccn5)C4)c(F)cc3c1=O)Oc1cc3ccccc3cc1-2 (centres unmarked) [Compound A-1]
96%	90%	100%	106%	102%	92%	106%	CC(=O)N1CCN(c2ccc3c(=O)c(C(=O)NCCN4CCCC4)c4n(C)c5ccccc5n4c3n2)CC1 [Compound B-1]
